Test results reported in patent publication US6037386A, “Composition for inactivating irritants in fluids” (priority 1999, dated 2000).

Experiments:
HBV = assay: Cidal concentration of CHG (1 minute kill), HBV; assay type: cell-based
HIV = assay: Cidal concentration of CHG (1 minute kill), HIV; assay type: cell-based
Staphylococcus aureus = assay: CFU in glove fingers inoculated with blood containing Staphylococcus aureus (synergistic activity); assay type: cell-based; settings: 2 minutes; CHG 450 μg, ZnO 12.5 mg
Description: Synergistic Activity of Zinc Oxide and CHX. CHG, ZnO, and a combination thereof was added to each glove finger. Glove fingers were then inoculated with 0.1 mL of blood containing 10^5 CFU Staphylococcus aureusmL. After 2 minutes, 0.9 mL of LTSB was added, and 0.2 mL of the extract were plated to determine colony counts.
This experiment was carried out using the method described in Example 14.

[1] = Product formed on mixing zinc salts with CHG / gel formation; assay type: physicochemical
Description: The following zinc salts were mixed with CHG for 1 hour and observed for the resulting product.

N=C(NCCCCCCNC(=N)NC(=N)Nc1ccc(Cl)cc1)NC(=N)Nc1ccc(Cl)cc1 [CHG, chlorhexidine gluconate]
cidal concentration for HBV (1 minute kill) (HBV): the same as that for Staphylococcus aureus
cidal concentration for HIV (1 minute kill) (HIV): the same as that for Staphylococcus aureus
CFU/glove finger (Staphylococcus aureus): 1420 CFU/glove finger

zinc gluconate
gel formation (in words) [1]: forming a gel matrix when mixed with water or alcohol
